Measured values: PMC11109052, “Metabolism characterization and toxicity of N-hydap, a marine candidate drug for lung cancer therapy by LC–MS method” (Natural Products and Bioprospecting, 2024)
Blank lines part the entries; values can stand above or below the molecule they belong to.

How the values were obtained:
SCLC = system: SCLC; design: method as in PMID 33683919; details: 3rd-line therapy of SCLC; cited from earlier work
[1] = design: method as in PMID 17513814; details: 2nd-line therapy of SCLC; cited from earlier work
RLMs = assay: Kinetics of N-hydap glucuronidation in RLMs; format: in vitro ADME, rat; details: RLM
Description: (§1) In this study, the rats were executed by drawing blood from the abdominal aorta and mice were sacrificed with cervical dislocation before the liver and kidneys were excised. The liver and kidneys were removed, and washed with chilled cleansing solution (contains 8 mM KH2PO4, 5.6 mM EDTA·K2·2H2O, 1 mM DTT and 229.6 μM PMSF), homogenized in a tissue homogenate buffer with a pH of 7.4, (consisting of […], 8 mM K2HPO4, 250 mM sucrose, 1 mM EDTA·K2·2H2O and 229.6 μM PMSF). Subsequently, the homogenate was centrifuged at 10,400 rpm at 4 °C for 15 min, and the supernatant was then centrifuged at 35,000 rpm at 4 °C for 60 min. A 250 mM sucrose buffer was added to the pellet to reconstitute and the resuspension was stored at − 80 °C until use. Microsome protein concentrations were measured by Omni-Easy™ Instant BCA Protein Assay Kit.
(§2) Various microsomes including HLMs, HKMs, HIMs, RLMs, RKMs, MLMs and MKMs were involved in CYP and UGT reactions of N-hydap. […]
(§3) The substrate concentrations used for HLMs were 0.05, 0.5, 2, 2.5, 5, 10, 25, 50, and 100 μM. […] The rates of N-hydap-G by enzymes were expressed as nmol/mg/min, representing the amount of metabolites formed per minute per milligram of protein. Kinetic parameters were determined by analyzing the Eadie–Hofstee plots. […]

MLMs = assay: Kinetics of N-hydap glucuronidation in MLMs; format: in vitro ADME, mouse; details: MLM
Description: as §1, §2, §3

MKMs = assay: Kinetics of N-hydap glucuronidation in MKMs; format: in vitro ADME, mouse; details: MKM
Description: as §1, §2, §3

UGT1A1 = target: T1, UGT1A1 (Homo sapiens, UniProt P22309); assay: Kinetics of N-hydap glucuronidation by recombinant UGT1A1; format: in vitro ADME
T1 construct: purchased Cypex (Scotland, UK)

[2] = Distribution studies in mice organs; format: in vivo; details: 30 min and 4 h
Description: The heart, liver, spleen, lungs and kidneys were removed from mice after administering a dose of 5 mg/kg through oral gavage and 2 mg/kg through tail vein injection at 30 min and 240 min, followed by homogenization with normal saline. The resulting homogenate was centrifuged at 4 °C, 13,000 rpm for 20 min, and the supernatant was then mixed with the internal standard by vortexing. The mixtures were centrifuged at 4 °C, 13,000 rpm for 15 min. The resulting supernatant was then subjected to vacuum drying for 3–4 h. Lastly, the dried powder was reconstituted with a mixture of 50% methanol and water, and then centrifuged for LC–MS testing.

RKMs = assay: Kinetics of N-hydap glucuronidation in RKMs; format: in vitro ADME, rat; details: RKM
Description: as §1, §2, §3

[3] = Pharmacokinetics studies in mice (plasma); format: in vivo; details: mice
Description: Mice were fasted for 12 h with access to water before drug administration. N-Hydap was dissolved in a solution containing 50% methanol and water. Before administration, the drug was diluted with PBS to achieve concentrations of 5 mg/kg and 2 mg/kg for gastric gavage and tail vein administration, respectively. Blood samples (120 μL) were collected from the orbital venous plexus at 2, 5, 10, 15, 30, 60, 90, 120, 180, and 240 min after N-hydap administration. The blood samples were collected into heparinized micro-centrifuge tubes and immediately centrifuged at 8000 rpm for 5 min at 4 °C. Plasma samples were prepared by adding an internal standard (IS) solution, Tes to the samples, followed by vortexing. The mixtures were then centrifuged at 4 °C and 13,000 rpm for 15 min. The resulting supernatant was dried under vacuum for 3–4 h, and the dry powder was reconstituted with a solution of 50% methanol and water. Finally, the plasma samples were analyzed using LC–MS, following the previously described method.
DAS 2.0 was used to calculate pharmacokinetic parameters using the standard non-compartmental method. All results were presented as mean ± standard deviation and significant differences were analyzed using One-way ANOVA by GraphPad Prism 8. Statistical significance was defined as p < 0.05.

other UGT isoforms = assay: Incubation with recombinant human UGT isoforms: other isoforms; format: in vitro ADME; details: recombinant UGT 2 μg/mL
Description: Incubation of N-hydap (2.5 μM) with eight recombinant human CYP enzymes (CYP1A2, CYP2B6, CYP2C9, CYP2C19, CYP2D6, CYP3A4, CYP4A11 and CYP4F2) at three enzyme concentrations (2, 4, and 20 μg/mL) was conducted following the same procedure as described above for microsomes. Subsequently, incubation with N-hydap (1, 2.5, and 6 μM) and twelve recombinant human UGT isoforms (UGT1A1, UGT1A3, UGT1A4, UGT1A6, UGT1A7, UGT1A8, UGT1A9, UGT1A10, UGT2B4, UGT2B7, UGT2B15 and UGT2B17) was performed, with the enzyme concentration used at 2 μg/mL. All reactions were carried out in triplicate.

HIMs = assay: Kinetics of N-hydap glucuronidation in HIMs; format: in vitro ADME, human; details: HIM
Description: (§4) Various microsomes including HLMs, HKMs, HIMs, RLMs, RKMs, MLMs and MKMs were involved in CYP and UGT reactions of N-hydap. A typical CYP incubation mixture included 0.5 mg/mL microsomes protein, 3.3 mM glucose-6-phosphate, 3.3 mM MgCl2, 0.4 U/mL glucose-6-phosphate dehydrogenase, and N-hydap (1, 2.5, or 10 μM) in the 50 mM potassium phosphate buffer (KPI, pH 7.4). The incubation mixture was preincubated at 37 °C for 5 min, and the reaction was started by adding NADP to form a NADPH-regenerating system. Simultaneously, the classic UGT reaction system consisted of 50 mM KPI, 5 mM MgCl2, 0.5 mg/mL microsomes, 0.125 mg/mL alamethicin, and 5.25 mg/mL saccharolactone. The reaction was initiated after supplying UDPGA. The CYP and UGT mixtures were incubated at 37 °C in a shaking water bath (80 rpm) for 1.5 h to enhance metabolite formation. To terminate the reaction, an ice-cold solution of Tes (50 ng/mL, dissolved in methanol and used as an internal standard) was added to half of the mixture volume. […]
as §3

HLMs = assay: Kinetics of N-hydap glucuronidation in HLMs; format: in vitro ADME, human; details: HLM
Description: as §4, §3

UGT1A3 = target: T2, UGT1A3 (Homo sapiens, UniProt P35503); assay: Kinetics of N-hydap glucuronidation by recombinant UGT1A3; format: in vitro ADME
T2 construct: purchased Cypex (Scotland, UK)

HKMs = assay: Kinetics of N-hydap glucuronidation in HKMs; format: in vitro ADME, human; details: HKM
Description: as §4, §3

[4] = substrate: CC1CCC2C(C=CC(C)C2C(=O)c2c(O)c(C3(O)CCC(O)C4OC43)cn(O)c2=O)C1; assay: Kinetics of N-hydap glucuronidation by recombinant UGT1A3; format: in vitro ADME, human; details: other: glucuronidation, pH 7.4, 37.0 °C
[5] = substrate: CC1CCC2C(C=CC(C)C2C(=O)c2c(O)c(C3(O)CCC(O)C4OC43)cn(O)c2=O)C1; assay: Kinetics of N-hydap glucuronidation by recombinant UGT1A1; format: in vitro ADME, human; details: other: glucuronidation, pH 7.4, 37.0 °C

Molecule: nivolumab: 3rd-line therapy for SCLC
overall survival (SCLC): does not prolong overall survival

Molecule: CC[C@@]1(O)C(=O)OCc2c1cc1n(c2=O)Cc2cc3c(CN(C)C)c(O)ccc3nc2-1 [topotecan]
grade 3/4 anemia [1]: 31% | neutropenia [1]: 64% | thrombocytopenia [1]: 18%

Vmax (UGT1A1): 4.596 ± 0.37 peak area ratio/min/mg | total distribution ratio, heart ([2]; oral 5 mg/kg): 2.61% | total distribution ratio, kidneys ([2]; oral 5 mg/kg): 17.64% | total distribution ratio, liver ([2]; oral 5 mg/kg): 70.86% | total distribution ratio, lungs ([2]; oral 5 mg/kg): 7.33% | total distribution ratio, spleen ([2]; oral 5 mg/kg): 1.56% | total distribution ratio, heart ([2]; tail vein injection 2 mg/kg): 11.92% | total distribution ratio, kidneys ([2]; tail vein injection 2 mg/kg): 16.73% | total distribution ratio, liver ([2]; tail vein injection 2 mg/kg): 56.90% | total distribution ratio, lungs ([2]; tail vein injection 2 mg/kg): 9.14% | total distribution ratio, spleen ([2]; tail vein injection 2 mg/kg): 5.31% | highest concentration in plasma, Rate (Am/Ai) ([3]; after oral administration of N-hydap 5 mg/kg): 1.632 | highest concentration in plasma, Rate (Am/Ai) ([3]; after tail vein injection of N-hydap 2 mg/kg): 0.085 | maximum plasma concentration after oral gavage relative to intravenous injection, dose-corrected ([3]; 1.632/0.085/2.5): 7.68 times | glucuronide detected after incubation with other UGT isoforms (other UGT isoforms): negligible amount | Vmax (UGT1A3): 10.07 ± 0.98 peak area ratio/min/mg
Molecule: CC1CCC2C(C=CC(C)C2C(=O)c2c(O)c(C3(O)CCC(OC4OC(C(=O)O)C(O)C(O)C4O)C4OC43)cn(O)c2=O)C1 (stereo not shown) [N-hydap-G]
Vmax (RLMs): 0.0567 ± 0.0014 peak area ratio/min/mg | Vmax (MLMs): 13.46 ± 1.32 peak area ratio/min/mg | Vmax (MKMs): 3.313 ± 0.51 peak area ratio/min/mg | Vmax (RKMs): 0.8051 ± 0.052 peak area ratio/min/mg | Vmax (HIMs): 1.020 ± 0.066 peak area ratio/min/mg | Vmax (HLMs): 5.126 ± 1.27 peak area ratio/min/mg | Vmax (HKMs): 7.210 ± 0.72 peak area ratio/min/mg

B1: UGT1A3 (Homo sapiens) (protein)
chain: GKVLVVPIDGSHWLSMREVLRELHARGHQAVVLTPEVNMHIKEENFFTLTTYAISWTQDEFDRHVLGHTQLYFETEHFLKKFFRSMAMLNNMSLVYHRSCVELLHNEALIRHLNATSFDVVLTDPVNLCAAVLAKYLSIPTVFFLRNIPCDLDFKGTQCPNPSSYIPRLLTTNSDHMTFMQRVKNMLYPLALSYICHAFSAPYASLASELFQREVSVVDILSHASVWLFRGDFVMDYPRPIMPNMVFIGGINCANRKPLSQEFEAYINASGEHGIVVFSLGSMVSEIPEKKAMAIADALGKIPQTVLWRYTGTRPSNLANNTILVKWLPQNDLLGHPMTRAFITHAGSHGVYESICNGVPMVMMPLFGDQMDNAKRMETKGAGVTLNVLEMTSEDLENALKAVINDKSYKENIMRLSSLHKDRPVEPLDLAVFWVEFVMRHKGAPHLRPAAHDLTWYQYHSLDVIGFLLAVVLTVAFITFKCCAYGYRKCLGKKGRVKKAHKSKTH
notes: purchased Cypex (Scotland, UK)
Km [4]: 10.68 µM | Vmax/Km [4]: 942.9 µL/min/mg

B2: UGT1A1 (Homo sapiens) (protein)
chain: HAGKILLIPVDGSHWLSMLGAIQQLQQRGHEIVVLAPDASLYIRDGAFYTLKTYPVPFQREDVKESFVSLGHNVFENDSFLQRVIKTYKKIKKDSAMLLSGCSHLLHNKELMASLAESSFDVMLTDPFLPCSPIVAQYLSLPTVFFLHALPCSLEFEATQCPNPFSYVPRPLSSHSDHMTFLQRVKNMLIAFSQNFLCDVVYSPYATLASEFLQREVTVQDLLSSASVWLFRSDFVKDYPRPIMPNMVFVGGINCLHQNPLSQEFEAYINASGEHGIVVFSLGSMVSEIPEKKAMAIADALGKIPQTVLWRYTGTRPSNLANNTILVKWLPQNDLLGHPMTRAFITHAGSHGVYESICNGVPMVMMPLFGDQMDNAKRMETKGAGVTLNVLEMTSEDLENALKAVINDKSYKENIMRLSSLHKDRPVEPLDLAVFWVEFVMRHKGAPHLRPAAHDLTWYQYHSLDVIGFLLAVVLTVAFITFKCCAYGYRKCLGKKGRVKKAHKSKTH
notes: as for B1
Km [5]: 46.43 µM | Vmax/Km [5]: 99.0 µL/min/mg
